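Grown in 96-well plates, cells were treated for 48 hours with each compound at five concentrations. Insufficient inhibition: endpoint recorded as highest concentration tested. TGI marks complete inhibition of growth.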
Key:
Experiment in all cases: growth of human tumour cells (NCI), 48 h
786-0 renal = tested on: 786-0 renal
A498 renal = tested on: A498 renal
A549 NSCLC = tested on: A549 NSCLC
ACHN renal = tested on: ACHN renal
BT-549 breast = tested on: BT-549 breast
CAKI-1 renal = tested on: CAKI-1 renal
CCRF-CEM leukemia = tested on: CCRF-CEM leukemia
COLO 205 colon = tested on: COLO 205 colon
DU-145 prostate = tested on: DU-145 prostate
EKVX NSCLC = tested on: EKVX NSCLC
HCC-2998 colon = tested on: HCC-2998 colon
HCT-116 colon = tested on: HCT-116 colon
HCT-15 colon = tested on: HCT-15 colon
HOP-62 NSCLC = tested on: HOP-62 NSCLC
HOP-92 NSCLC = tested on: HOP-92 NSCLC
HT29 colon = tested on: HT29 colon
IGROV1 ovarian = tested on: IGROV1 ovarian
K-562 leukemia = tested on: K-562 leukemia
KM12 colon = tested on: KM12 colon
LOX IMVI melanoma = tested on: LOX IMVI melanoma
M14 melanoma = tested on: M14 melanoma
MALME-3M melanoma = tested on: MALME-3M melanoma
MCF7 breast = tested on: MCF7 breast
MDA-MB-231 breast = tested on: MDA-MB-231 breast
MDA-MB-435 = tested on: MDA-MB-435
MDA-N = tested on: MDA-N
MOLT-4 leukemia = tested on: MOLT-4 leukemia
NCI-H226 lung = tested on: NCI-H226 lung
NCI-H23 lung = tested on: NCI-H23 lung
NCI-H522 lung = tested on: NCI-H522 lung
NCI/ADR-RES ovarian = tested on: NCI/ADR-RES ovarian
OVCAR-3 ovarian = tested on: OVCAR-3 ovarian
OVCAR-4 ovarian = tested on: OVCAR-4 ovarian
OVCAR-5 ovarian = tested on: OVCAR-5 ovarian
OVCAR-8 ovarian = tested on: OVCAR-8 ovarian
PC-3 prostate = tested on: PC-3 prostate
RPMI-8226 leukemia = tested on: RPMI-8226 leukemia
SF-268 CNS = tested on: SF-268 CNS
SF-295 CNS = tested on: SF-295 CNS
SF-539 CNS = tested on: SF-539 CNS
SK-MEL-2 melanoma = tested on: SK-MEL-2 melanoma
SK-MEL-5 melanoma = tested on: SK-MEL-5 melanoma
SK-OV-3 ovarian = tested on: SK-OV-3 ovarian
SN12C renal = tested on: SN12C renal
SNB-75 CNS = tested on: SNB-75 CNS
SR leukemia = tested on: SR leukemia
SW-620 colon = tested on: SW-620 colon
T-47D breast = tested on: T-47D breast
TK-10 renal = tested on: TK-10 renal
U251 CNS = tested on: U251 CNS
UACC-257 melanoma = tested on: UACC-257 melanoma
UACC-62 melanoma = tested on: UACC-62 melanoma
UO-31 renal = tested on: UO-31 renal
HL-60(TB) leukemia = tested on: HL-60(TB) leukemia
NCI-H460 lung = tested on: NCI-H460 lung
RXF 393 renal = tested on: RXF 393 renal
SK-MEL-28 melanoma = tested on: SK-MEL-28 melanoma
SNB-19 CNS = tested on: SNB-19 CNS
HS 578T breast = tested on: HS 578T breast

Measured: TGI

COc1ccc2c(c1)C1Oc3ccccc3CC1(O)CO2 (stereo not drawn)
not listed: HL-60(TB) leukemia | NCI-H460 lung | RXF 393 renal | SK-MEL-28 melanoma | SNB-19 CNS | HS 578T breast
> 100 µM: all other assays above

NNC(=Nc1ccccc1)SCc1ccccc1
not listed: EKVX NSCLC | SF-268 CNS | T-47D breast | TK-10 renal | HS 578T breast
> 100 µM: all other assays above

O=C(Nc1ccccc1)c1cc(S(=O)(=O)Nc2n[nH]c(=O)[nH]2)c(SSc2cc(Cl)c(C(=O)Nc3ccccc3)cc2S(=O)(=O)Nc2n[nH]c(=O)[nH]2)cc1Cl
not listed: DU-145 prostate | SF-539 CNS | T-47D breast | UACC-62 melanoma | RXF 393 renal
> 100 µM: all other assays above

O=C1c2n[nH]nc2C(=O)c2n[nH]nc21
not listed: BT-549 breast | MALME-3M melanoma
> 100 µM: all other assays above

From PubChem BioAssay (NCI)
